Test results reported in patent publication US6433022B1, “Spermicide” (Medical Research Council, priority 1997, dated 2002).
pIC50: −log10 of the molar value.

Columns and labels:
human sperm = assay: Effect of quinones on sperm motility; assay type: cell-based
Procedure: Following the preparation of spermatozoa by standard Percoll gradient they were resuspended in homologous seminal plasma to a concentration of 20 million per ml, immediately prior to the beginning of the experiment. 50 μl of the sperm suspension was placed in an eppendorf tube, and the quinone was either added alone or in combination with other reagents, for example, KI, HRP (Horseradish Peroxidase), BHT (butylated hydroxytoluene) etc. depending on the experiment. The volume was made up to 100 μl with BWW/PVA.
The quinone was always the final reagent to be added. […] The sample was gently agitated and 10 μl was placed on a slide and a motility was scored. The aim was to score a motility approximately 20 seconds following the addition of the quinone. There were two controls set up, one motility count taken at the beginning of the experiment (initial control) and one motility count taken at the end of the experiment (final control). The controls consisted of 50 μl of the sperm suspension followed by the addition of 50 μl BWW/PVA. The reason for having two controls was to observe if any changes in sperm motility had occurred simply as a factor of time, i.e. from residing in seminal plasma for a long duration. At all times during the experiment, the spermatozoa were incubated in a hot box at 24° C. All motility experiments were carried out on sperm suspended in seminal plasma unless otherwise stated.

[1] = test system: spermatozoa in seminal plasma; assay: Lucigenin-dependent chemiluminescence detection of quinone-induced superoxide; assay type: cell-based, human; settings: increasing doses incl. 25 μM and 50 μM; FIG. 1b
From the text: ROS generation was monitored by luminometry employing the chemiluminescence probes lucigenin and luminol. Lucigenin is sensitive to the presence of superoxide anion and was used to monitor the free radical responses to NAD(P)H. Luminol, when used in conjunction with horseradish peroxidase (HRP; Sigma Type Vl, 288 U/mg), detects mainly hydrogen peroxide (Aitken et al., 1992) and was used to monitor the responses of spermatozoa to PMA (phorbol 12-myristate, 13-acetate), an activator of protein kinase C. NAD(P)H could not be used with the luminol-peroxidase system because of the generation of high background signals, presumably due to the oxidase reactions of HRP. Photon emission was monitored at 37° C. using the Bermold 9505B luminometer (Berthold, Wilbad, Germany) featuring 6 electronically compensated, peltier cooled, photomultipliers and the results expressed as counts/minute. For both of the probes used, 400 μl of spermatozoa, at a concentration of 10×10^6/ml, were placed in a 3 ml plastic, flat-bottomed plastic tube. For luminol-based reactions, the spermatozoa were suspended in BWW supplemented with Albuminar, but when lucigenin was used the Albuminar was replaced with 1 mg/ml polyvinyl alcohol. […] The luminometer results were recorded as continuous traces and as integrated photon counts over a fixed period of time (5 min). […]

[2] = test system: sperm, seminal plasma and serum; assay: Luminol/peroxidase-dependent chemiluminescence detection of quinone-induced H2O2; assay type: cell-based, human; settings: 50 μM
From the text: (§1) ROS generation was monitored by luminometry employing the chemiluminescence probes lucigenin and luminol. Lucigenin is sensitive to the presence of superoxide anion and was used to monitor the free radical responses to NAD(P)H. Luminol, when used in conjunction with horseradish peroxidase (HRP; Sigma Type Vl, 288 U/mg), detects mainly hydrogen peroxide (Aitken et al., 1992) and was used to monitor the responses of spermatozoa to PMA (phorbol 12-myristate, 13-acetate), an activator of protein kinase C. NAD(P)H could not be used with the luminol-peroxidase system because of the generation of high background signals, presumably due to the oxidase reactions of HRP. Photon emission was monitored at 37° C. using the Bermold 9505B luminometer (Berthold, Wilbad, Germany) featuring 6 electronically compensated, peltier cooled, photomultipliers and the results expressed as counts/minute. For both of the probes used, 400 μl of spermatozoa, at a concentration of 10×10^6/ml, were placed in a 3 ml plastic, flat-bottomed plastic tube. For luminol-based reactions, the spermatozoa were suspended in BWW supplemented with Albuminar, but when lucigenin was used the Albuminar was replaced with 1 mg/ml polyvinyl alcohol. A 4 μl aliquot of a 25 mM stock solution of either luminol or lucigenin m-dimethyl sulphoxide (DMSO), was then added to the cell suspension, resulting in a final probe concentration of 250 μM. For the measurement of hydrogen peroxide generation by intact cells, luminol-dependent chemiluminescence was enhanced by addition of 8 μl of HRP, freshly prepared at a concentration of 2 mg/ml in PBS, to give a final HRP concentration of 11.52 U/ml. The luminometer results were recorded as continuous traces and as integrated photon counts over a fixed period of time (5 min).
Luminol alone measures H2O2; however when used alongside HRP, it can measure the production of H2O2 internally and externally. The sperm were prepared by standard percoll gradient and resuspended in seminal plasma or BWW/PVA to a concentration of 10 million cells per ml. […]

spermatozoa = assay: Effect on lipid peroxidation in spermatozoa; assay type: cell-based, human; settings: exposure to compound vs control
HIV-1 = assay: Virucidal activity using cell-free virus (viral adhesion assay, syncytia in C8166 cells); assay type: cell-based
Procedure: A simple, microtitre plate assay was developed (viral adhesion assay) in which the virus was attached to the solid phase by Pol-L-lysine Hydrobromide (PLL, Sigma). Sterile 24 and 96 well plates (Nunc) were coated for 1 hour with 50 μl of 50 μg/ml PLL at room temperature. When using 96 well microtitre plates the outer ring of wells were left uncoated and filled with 250 μl of sterile PBS to counteract the effects of evaporation. The coated wells were washed twice with sterile PBS using a Denley-4 plate washer. 25 μl of RPMI 1640 medium containing HIV-1 (50×TCID50) was added to the wells and incubated for 1 hour at room temperature. The plate was again washed twice with sterile PBS. 25 μl of varying concentrations of the candidate virucide were added to each well for 15 minutes and the virucide removed with two washes of sterile PBS. The T-lymphocyte cell line C8166, at a concentration of 4×10^4 cells in 300Fl RPMI 1640, were added to each well so that the cells formed a uniform monolayer on the adherent virus. After incubation for 72 hours, the number of syncytia in the monolayer gave an accurate measure of the amount of infectious virus present. Wells untreated with virucide were used as positive controls. […] The assay allowed the efficient removal of the candidate virucides or disinfectant and allowed the compound to be assessed for accurately determined contact times.

human spermatozoa [3] = assay: Nicotinamide dinucleotide-induced superoxide generation, lucigenin-dependent chemiluminescence; assay type: cell-based
From the text: as §1
The ability of human spermatozoa to generate superoxide anion in response to NADPH was monitored by lucigenin-dependent chemiluminescence and compared with its non-phosphorylated and non-reduced counterparts, i.e. NADH, NADP^+ and NAD^+. In addition, the stimulatory properties of an isomer of NADPH, usually non-active in reductive biosynthesis, were examined. All pyridine nucleotides were made up to the required concentration in PBS immediately prior to use. Stock solutions of the nucleotides were made up at concentrations 10 fold higher than the required final working concentration, to allow for a 10 fold dilution on addition to the suspensions of spermatozoa.

human spermatozoa [4] = assay: Quantification of superoxide anion generation by SOD-inhibitable reduction of cytochrome C; assay type: cell-based; settings: 2 mM, n=5
Procedure: Superoxide anion generation was quantified spectrophotometrically via the superoxide-dependent reduction of cytochrome C (McCord and Fridovich, 1969). Spermatozoa were used at an increased concentration of 10×10^7/ml in BWW supplemented with PVA (1 mg/ml). An aliquot (400 μl) of this sperm suspension was placed in a 1 ml disposable, plastic cuvette and 50 μl of cytochrome C (Type Vl from horse heart), was added to give a final working concentration of 100 μM. The reference cuvette contained the same ingredients, except that 50 μl of SOD was added to give final concentration of 196 U/ml. Absorbance was monitored at 550 nm and the SOD-inhibitable superoxide generation calculated using an extinction coefficient for reduced cytochrome C of ε=21.1 mM^−1cm^−1.

human spermatozoa [5] = assay: Percentage motility of spermatozoa exposed to NADPH; assay type: cell-based; settings: doses 0.625 to 10 mM, at least 3 hr

Row | SMILES | mean motility score (human sperm; 50 μM quinone, human sperm) | sperm immobilisation (human sperm; concentrations ranging from 25 μM to 100 μM) | pIC50 (human sperm; human sperm in seminal plasma, motility scored approximately 20 seconds after addition, read-out: ID50, dose-dependent inhibition of sperm motility) | superoxide burst generated by spermatozoa in seminal plasma [1] | H2O2 production in seminal plasma and serum ([2]; no spermatozoa) | H2O2 production, spermatozoa in BWW ([2]; on addition of the reagent) | time of peak of slow secondary increase in H2O2 after initial exposure ([2]; spermatozoa in BWW) | lipid peroxidation in spermatozoa (spermatozoa) | antiviral activity against HIV-1 (HIV-1; absence of human semen, 15 minutes contact) | antiviral activity against HIV-1, effect of semen (HIV-1; presence of human semen vs absence) | lucigenin-dependent chemiluminescent response (superoxide anion generation) (human spermatozoa [3]; 500 μM nucleotide) | increase in the chemiluminescent signal (human spermatozoa [3]; addition to spermatozoa, lucigenin, FIG. 5a) | superoxide generation rate during sudden burst (human spermatozoa [4]) | superoxide release rate after stabilisation (human spermatozoa [4]; thereafter) | percentage motility of the spermatozoa (human spermatozoa [5])
1 | O=C1C=CC(=O)c2ccccc21 [1,4-naphthoquinone] | 0.143% | completely immobilised | ~5.00 | Increasing doses of this compound led to a corresponding increase in superoxide production | no such activity | instantaneous significant burst of H2O2 | 25 to 30 min | lipid peroxidation did not occur | dose-dependent antiviral activity | potentiated by an order of magnitude |  |  |  |  | 
2 | NC(=O)C1=CN([C@@H]2O[C@H](COP(=O)(O)OP(=O)(O)OC[C@H]3O[C@@H](n4cnc5c(N)ncnc54)[C@H](OP(=O)(O)O)[C@@H]3O)[C@@H](O)[C@H]2O)C=CC1 [NADPH, Dihydronicotinamide adenine dinucleotide phosphate] |  |  |  |  |  |  |  |  |  |  | burst of ROS generation | 10 fold | 99.52+/−9.12 pmol.min^−1. 10^6 spermatozoa | 7.65+/−0.97 pmol.min^−1. 10^6 spermatozoa | remained unchanged
